Results as given in patent US20250122183A1 (Pfizer Inc., priority 2023, published 2025).

How the values were obtained:
KAT6A Full length enzyme = KAT6A Full length enzyme (Homo sapiens (Human), UniProt Q92794); assay: KAT6A assay (SAMDI-MS acetylation of H3 1-21 peptide); type: biochemical; conditions: Morrison equation fit; replicate number in parentheses; read-out: KAT6A Ki (nM) (replicate number)
[1] = molecular target: KAT7+JADE1+EAF6+ING5 4 protein complex (Homo sapiens (Human), UniProt O95251); assay: KAT7 JADE1 assay (SAMDI-MS acetylation of H3 1-21 peptide); type: biochemical; conditions: Morrison equation fit; replicate number in parentheses; read-out: KAT7 JADE1 Ki (nM) (replicate number)

Sequence of KAT6A Full length enzyme (Q92794 other isoform, or with tags, fused parts or gaps): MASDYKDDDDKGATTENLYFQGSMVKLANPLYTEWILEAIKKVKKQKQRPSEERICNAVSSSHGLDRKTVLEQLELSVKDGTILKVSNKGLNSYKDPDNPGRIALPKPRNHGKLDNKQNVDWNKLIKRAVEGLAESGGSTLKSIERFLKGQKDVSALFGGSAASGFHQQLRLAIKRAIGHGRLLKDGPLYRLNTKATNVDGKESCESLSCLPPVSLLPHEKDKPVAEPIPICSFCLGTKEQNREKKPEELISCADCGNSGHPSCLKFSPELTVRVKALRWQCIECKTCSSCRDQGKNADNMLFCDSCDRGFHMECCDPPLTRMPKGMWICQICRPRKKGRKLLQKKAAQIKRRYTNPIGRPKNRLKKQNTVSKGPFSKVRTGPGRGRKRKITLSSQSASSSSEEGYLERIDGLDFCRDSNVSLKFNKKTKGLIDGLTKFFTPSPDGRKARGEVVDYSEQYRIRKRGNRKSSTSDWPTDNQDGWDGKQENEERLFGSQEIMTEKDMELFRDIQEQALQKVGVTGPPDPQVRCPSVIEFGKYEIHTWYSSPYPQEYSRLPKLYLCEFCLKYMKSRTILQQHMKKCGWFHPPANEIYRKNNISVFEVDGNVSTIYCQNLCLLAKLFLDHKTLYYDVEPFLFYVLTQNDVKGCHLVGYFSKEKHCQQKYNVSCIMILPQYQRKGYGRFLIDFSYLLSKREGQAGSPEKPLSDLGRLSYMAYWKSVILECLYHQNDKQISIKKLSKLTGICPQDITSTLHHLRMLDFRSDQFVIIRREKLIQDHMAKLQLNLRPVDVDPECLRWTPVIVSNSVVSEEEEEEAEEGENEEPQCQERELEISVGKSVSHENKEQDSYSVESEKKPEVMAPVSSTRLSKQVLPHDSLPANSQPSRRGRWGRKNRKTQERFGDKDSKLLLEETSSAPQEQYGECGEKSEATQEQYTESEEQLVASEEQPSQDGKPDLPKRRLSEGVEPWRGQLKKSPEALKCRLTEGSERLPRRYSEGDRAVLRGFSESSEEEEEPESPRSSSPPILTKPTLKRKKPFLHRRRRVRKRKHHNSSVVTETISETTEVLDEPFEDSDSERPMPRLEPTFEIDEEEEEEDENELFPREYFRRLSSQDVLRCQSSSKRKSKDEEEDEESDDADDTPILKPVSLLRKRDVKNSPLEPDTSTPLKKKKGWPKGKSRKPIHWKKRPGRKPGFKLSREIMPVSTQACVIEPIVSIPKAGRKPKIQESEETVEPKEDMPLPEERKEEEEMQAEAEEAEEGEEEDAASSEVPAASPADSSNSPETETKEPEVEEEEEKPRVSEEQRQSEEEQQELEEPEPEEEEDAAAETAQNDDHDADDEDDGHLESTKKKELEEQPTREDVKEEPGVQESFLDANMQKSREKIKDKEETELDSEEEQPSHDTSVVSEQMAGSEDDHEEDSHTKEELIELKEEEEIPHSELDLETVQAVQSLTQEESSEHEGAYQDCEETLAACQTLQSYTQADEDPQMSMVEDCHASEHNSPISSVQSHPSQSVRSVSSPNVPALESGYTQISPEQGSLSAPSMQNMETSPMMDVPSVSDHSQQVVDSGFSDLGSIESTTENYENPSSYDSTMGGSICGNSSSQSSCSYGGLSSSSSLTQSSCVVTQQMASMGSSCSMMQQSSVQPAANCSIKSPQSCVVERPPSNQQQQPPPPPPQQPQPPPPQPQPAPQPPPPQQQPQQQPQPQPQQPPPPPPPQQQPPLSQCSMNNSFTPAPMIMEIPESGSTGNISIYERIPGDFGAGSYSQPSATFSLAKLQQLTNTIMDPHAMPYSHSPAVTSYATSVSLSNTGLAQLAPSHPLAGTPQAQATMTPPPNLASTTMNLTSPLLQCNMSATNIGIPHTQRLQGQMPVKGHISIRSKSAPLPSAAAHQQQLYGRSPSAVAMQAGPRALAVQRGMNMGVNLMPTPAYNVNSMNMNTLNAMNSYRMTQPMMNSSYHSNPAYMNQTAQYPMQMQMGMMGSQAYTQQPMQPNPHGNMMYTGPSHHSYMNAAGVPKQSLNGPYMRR

| Compound | Ki (KAT6A Full length enzyme) [nM] | Ki [1] [nM] |
| --- | --- | --- |
| COc1cc2c(NS(=O)(=O)c3c(OC)cc(C4CN(C5CCOC5)C4)cc3OC)noc2cc1Nc1cc(C2CC2)n[nH]1 (racemic) [Example 187, N-{6-[(3-cyclopropyl-1H-pyrazol-5-yl)amino]-5-methoxy-1,2-benzoxazol-3-yl]-2,6-dimethoxy-4-[1-(oxolan-3-yl)azetidin-3-yl]benzene-1-sulfonamide] | 2.2 | 13.1 |
| COc1cc2c(NS(=O)(=O)c3c(OC)cc(C4CCCCO4)cc3OC)noc2cc1Nc1cc(C2CC2)n[nH]1 (single isomer, unassigned) [Example 142, N-{6-[(3-cyclopropyl-1 H-pyrazol-5-yl)amino]-5-methoxy-1,2-benzoxazol-3-yl}-2,6-dimethoxy-4-(oxan-2-yl)benzene-1-sulfonamide] | 0.7 | 6.7 |
| COc1cc2c(NS(=O)(=O)c3c(OC)cc(C4CCN(C)C4)cc3OC)noc2cc1Nc1cc(C2CC2)n[nH]1 (single isomer, unassigned) [Example 147, N-{6-[(3-cyclopropyl-1 H-pyrazol-5-yl)amino]-5-methoxy-1,2-benzoxazol-3-yl}-2,6-dimethoxy-4-(1-methylpyrrolidin-3-yl)benzene-1-sulfonamide] | 1.6 | 12.1 |
| CCN1CCOC(c2cc(OC)c(S(=O)(=O)Nc3noc4cc(Nc5cc(C6CC6)n[nH]5)c(OC)cc34)c(OC)c2)C1 (single isomer, unassigned) [Example 156, N-{6-[(3-cyclopropyl-1 H-pyrazol-5-yl)amino]-5-methoxy-1,2-benzoxazol-3-yl}-4-(4-ethylmorpholin-2-yl)-2,6-dimethoxybenzene-1-sulfonamide] | 0.8 | 4 |
| CCN1CCOC(c2cc(OC)c(S(=O)(=O)Nc3noc4cc(Nc5cc(C6CC6)n[nH]5)c(OC)cc34)c(OC)c2)C1 (single isomer, unassigned) [Example 157, N-{6-[(3-cyclopropyl-1 H-pyrazol-5-yl)amino]-5-methoxy-1,2-benzoxazol-3-yl}-4-(4-ethylmorpholin-2-yl)-2,6-dimethoxybenzene-1-sulfonamide] | 2.5 | 11.6 |
| COc1cc2c(NS(=O)(=O)c3c(OC)cc(C4CCCN([C@@H]5CCOC5)C4)cc3OC)noc2cc1Nc1cc(C2CC2)n[nH]1 (single isomer, unassigned) [Example 158] | 1.2 | 8.7 |
| COc1cc2c(NS(=O)(=O)c3c(OC)cc(C4CCCN([C@@H]5CCOC5)C4)cc3OC)noc2cc1Nc1cc(C2CC2)n[nH]1 (single isomer, unassigned) [Example 159] | 1.1 | 7 |
| COc1cc2c(NS(=O)(=O)c3c(OC)cc(C4CCN([C@@H]5CCOC5)C4)cc3OC)noc2cc1Nc1cc(C2CC2)n[nH]1 (single isomer, unassigned) [Example 160] | 1 | 6.9 |
| COc1cc2c(NS(=O)(=O)c3c(OC)cc(C4CCN([C@@H]5CCOC5)C4)cc3OC)noc2cc1Nc1cc(C2CC2)n[nH]1 (single isomer, unassigned) [Example 161] | 1.2 | 5.5 |
| COc1cc2c(NS(=O)(=O)c3c(OC)cc(C4CCN([C@H]5CCOC5)C4)cc3OC)noc2cc1Nc1cc(C2CC2)n[nH]1 (single isomer, unassigned) [Example 162] | 1.2 | 8.9 |
| COc1cc2c(NS(=O)(=O)c3c(OC)cc(C4CCN([C@H]5CCOC5)C4)cc3OC)noc2cc1Nc1cc(C2CC2)n[nH]1 (single isomer, unassigned) [Example 163] | 1.4 | 8.2 |
| COc1cc2c(NS(=O)(=O)c3c(OC)cc(C4CCCN4CC(F)F)cc3OC)noc2cc1Nc1cc(C2CC2)n[nH]1 (single isomer, unassigned) [Example 165, N-{6-[(3-cyclopropyl-1H-pyrazol-5-yl)amino]-5-methoxy-1,2-benzoxazol-3-yl}-4-[1-(2,2-difluoroethyl)pyrrolidin-2-yl]-2,6-dimethoxybenzene-1-sulfonamide] | 1.4 | 5 |
| COc1cc2c(NS(=O)(=O)c3c(OC)cc(C4CCCN4CC(F)F)cc3OC)noc2cc1Nc1cc(C2CC2)n[nH]1 (single isomer, unassigned) [Example 166, N-{6-[(3-cyclopropyl-1 H-pyrazol-5-yl)amino]-5-methoxy-1,2-benzoxazol-3-yl}-4-[1-(2,2-difluoroethyl)pyrrolidin-2-yl]-2,6-dimethoxybenzene-1-sulfonamide] | 1.6 | 8.5 |
| COc1cc2c(NS(=O)(=O)c3c(OC)cc(C4CCCN(CC(F)F)C4)cc3OC)noc2cc1Nc1cc(C2CC2)n[nH]1 (single isomer, unassigned) [Example 167, N-{6-[(3-cyclopropyl-1 H-pyrazol-5-yl)amino]-5-methoxy-1,2-benzoxazol-3-yl}-4-[1-(2,2-difluoroethyl)piperidin-3-yl]-2,6-dimethoxybenzene-1-sulfonamide] | 0.9 | 4 |
| COc1cc2c(NS(=O)(=O)c3c(OC)cc(C4CCCN(CC(F)F)C4)cc3OC)noc2cc1Nc1cc(C2CC2)n[nH]1 (single isomer, unassigned) [Example 168, N-{6-[(3-cyclopropyl-1 H-pyrazol-5-yl)amino]-5-methoxy-1,2-benzoxazol-3-yl}-4-[1-(2,2-difluoroethyl)piperidin-3-yl]-2,6-dimethoxybenzene-1-sulfonamide] | 0.8 | 2.7 |
| COc1cc2c(NS(=O)(=O)c3c(OC)cc(C4CCCN(CC(F)(F)F)C4)cc3OC)noc2cc1Nc1cc(C2CC2)n[nH]1 (single isomer, unassigned) [Example 169, N-{6-[(3-cyclopropyl-1 H-pyrazol-5-yl)amino]-5-methoxy-1,2-benzoxazol-3-yl}-2,6-dimethoxy-4-[1-(2,2,2-trifluoroethyl)piperidin-3-yl]benzene-1-sulfonamide] | 0.5 |  |
| COc1cc2c(NS(=O)(=O)c3c(OC)cc(C4CCCN(CC(F)(F)F)C4)cc3OC)noc2cc1Nc1cc(C2CC2)n[nH]1 (single isomer, unassigned) [Example 170, N-{6-[(3-cyclopropyl-1 H-pyrazol-5-yl)amino]-5-methoxy-1,2-benzoxazol-3-yl}-2,6-dimethoxy-4-[1-(2,2,2-trifluoroethyl)piperidin-3-yl]benzene-1-sulfonamide] | 0.4 |  |
| COc1cc2c(NS(=O)(=O)c3c(OC)cc(C4CCCCN4C)cc3OC)noc2cc1Nc1cc(C2CC2)n[nH]1 (single isomer, unassigned) [Example 171, N-{6-[(3-cyclopropyl-1 H-pyrazol-5-yl)amino]-5-methoxy-1,2-benzoxazol-3-yl}-2,6-dimethoxy-4-(1-methylpiperidin-2-yl)benzene-1-sulfonamide] | 2.1 | 8.4 |
| COc1cc2c(NS(=O)(=O)c3c(OC)cc(C4CCCCN4C)cc3OC)noc2cc1Nc1cc(C2CC2)n[nH]1 (single isomer, unassigned) [Example 172, N-{6-[(3-cyclopropyl-1 H-pyrazol-5-yl)amino]-5-methoxy-1,2-benzoxazol-3-yl}-2,6-dimethoxy-4-(1-methylpiperidin-2-yl)benzene-1-sulfonamide] | 4.4 | 34.1 |
| COc1cc2c(NS(=O)(=O)c3c(OC)cccc3OC)noc2cc1Nc1cc(C2CC2)nn1C [Example 48, N-{6-[(3-cyclopropyl-1-methyl-1H-pyrazol-5-yl)amino]-5-methoxy-1,2-benzoxazol-3-yl}-2,6-dimethoxybenzene-1-sulfonamide] |  | > 12500 |
